Data from PubChem BioAssay (NCI).
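Each compound was tested at five concentrations against cells in 96-well plates for 48 hours. Here, GI50 denotes the concentration required for 50% inhibition of growth. TGI: concentration producing complete growth inhibition.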

What was measured:
Assay in all cases: NCI anticancer screen, dose series, 48 h
HL-60(TB) leukemia = system: HL-60(TB) leukemia
M14 melanoma = system: M14 melanoma
MALME-3M melanoma = system: MALME-3M melanoma
NCI-H226 lung = system: NCI-H226 lung
SK-MEL-28 melanoma = system: SK-MEL-28 melanoma
SK-MEL-5 melanoma = system: SK-MEL-5 melanoma
SNB-19 CNS = system: SNB-19 CNS
SNB-75 CNS = system: SNB-75 CNS
SW-620 colon = system: SW-620 colon
UO-31 renal = system: UO-31 renal

| SMILES | TGI (HL-60(TB) leukemia) | TGI (M14 melanoma) | TGI (MALME-3M melanoma) | TGI (NCI-H226 lung) | TGI (SK-MEL-28 melanoma) | TGI (SK-MEL-5 melanoma) | TGI (SNB-19 CNS) | TGI (SNB-75 CNS) | TGI (SW-620 colon) | TGI (UO-31 renal) | GI50 (HL-60(TB) leukemia) | GI50 (M14 melanoma) | GI50 (MALME-3M melanoma) | GI50 (NCI-H226 lung) | GI50 (SK-MEL-28 melanoma) | GI50 (SK-MEL-5 melanoma) | GI50 (SNB-19 CNS) | GI50 (SNB-75 CNS) | GI50 (SW-620 colon) | GI50 (UO-31 renal) |
| --- | --- | --- | --- | --- | --- | --- | --- | --- | --- | --- | --- | --- | --- | --- | --- | --- | --- | --- | --- | --- |
| O=C1C(=O)N(c2ccc(Cl)cc2)C(=O)C(=O)C1c1nc2ccccc2o1 | > 100 µM | > 100 µM | > 100 µM | > 100 µM | > 100 µM | > 100 µM | > 100 µM | > 100 µM | > 100 µM | > 100 µM |  |  |  |  |  |  |  |  |  |  |
| CSc1c(C2=C(c3cn(C)c4ccccc34)C(=O)NC2=O)c2ccccc2n1C | 3.55 µM | > 25 µM | > 25 µM | > 25 µM | > 25 µM | 6.88 µM | > 25 µM | > 12.6 µM | > 25 µM | > 19.4 µM | 0.703 µM | 0.649 µM | 1.21 µM | 3.21 µM | 1.85 µM | 0.758 µM | > 25 µM | 0.728 µM | 0.736 µM | 0.703 µM |
| NC(=NCc1ccccc1)C(N=Nc1ccccc1)C(=O)NCc1ccccc1 (stereo not given) | 27.4 µM | 22.3 µM | 48.2 µM | 52.6 µM | 45.7 µM | 67.3 µM | 31.5 µM | 27.7 µM | 3.62 µM | 29.1 µM | 4.64 µM | 5.71 µM | 21.5 µM | 21.3 µM | 20.4 µM | 23.4 µM | 13.2 µM | 13.2 µM | 1.83 µM | 5.87 µM |
